Test results taken from patent US20260274891A1, “¿ OPIOID RECEPTOR AGONIST AND USE THEREOF” (CHENGDU AODA BIOTECHNOLOGY CO., LTD., priority 2023, published 2026).
Like-named read-outs stand apart in the source and are kept apart here. Square brackets hold non-standard residues; d marks the D form. Side chains are listed from the residue outwards. Peptide text beside a SMILES is read from it. * marks the point of attachment. X12 = CCOc1ccc(C[C@@H](NC(=O)[C@H](N)Cc2ccccc2)C(=O)*)cc1; X5 = NCCCC[C@@H](NC(=O)CNC(=O)C1(N)CCN(*)CC1)C(N)=O; Piperidin1yl(4-NH2,4-COOH) = NC1(C(=O)O)CCN(*)CC1; Piperidinyl(4-NH2,4-CONH2) = NC(=O)C1(N)CCN(*)CC1; X10 = NCCCC[C@@H](NC(=O)C1(N)CCN(*)CC1)C(=O)O; X1 = NCCCC[C@@H](NC(=O)C1(N)CCN(*)CC1)C(N)=O; X6 = NCCCC[C@H](NC(=O)C1(N)CCN(*)CC1)C(N)=O; dAla(cPr) = N[C@H](CC1CC1)C(=O)O; Trifluoroethyl = FC(F)(F)C*; Api = NC1(C(=O)O)CCNCC1; iPr = CC(C)*

Target: T1, human κ opioid receptor (OPRK1) (Homo sapiens, UniProt P41145)
T1 construct: expressed in transfected cells; host or cells: CHO-K1
Assay: Determination of activities of κ receptor agonists: inhibition of forskolin-stimulated cAMP release (HTRF) in stably transfected CHO-K1 cells
Type: cell-based
Conditions: for Relative Activity %: relative to Difelikefalin = 100.0
From the text: Gi-coupled human κ opioid receptor (OPRK1), upon stimulation with its specific opioid receptor agonists, can inhibit the intracellular adenylate cyclase pathway, and decrease cAMP levels. Forskolin can stimulate cAMP release in cell lines highly expressing opioid receptors. By stimulating cell lines stably transfected with opioid receptors, the inhibitory effect of a test compound on forskolin-stimulated cAMP release can be measured to determine the activity of the compound. The relative light units (RLU) from the cells after stimulation with different doses were measured via the homogeneous time-resolved fluorescence technique (HTRF), and the EC50 value of the agonist was subsequently calculated. This activity determination method is a currently commonly used method for determining the activities of opioid receptor agonists at home and abroad.
A CHO-K1 cell line stably expressing opioid receptors was used. Stably transfected cells were stimulated with various concentrations of agonists (under the stimulation of a certain concentration of forskolin). The relative light units from the cells after stimulation with different doses were measured, from which the EC50 value of the agonist was subsequently obtained by calculation.

[1] = CHO-K1 cell line stably expressing opioid receptors, forskolin-stimulated cAMP, HTRF, read-out: EC50

T1 sequence (P41145 whole entry): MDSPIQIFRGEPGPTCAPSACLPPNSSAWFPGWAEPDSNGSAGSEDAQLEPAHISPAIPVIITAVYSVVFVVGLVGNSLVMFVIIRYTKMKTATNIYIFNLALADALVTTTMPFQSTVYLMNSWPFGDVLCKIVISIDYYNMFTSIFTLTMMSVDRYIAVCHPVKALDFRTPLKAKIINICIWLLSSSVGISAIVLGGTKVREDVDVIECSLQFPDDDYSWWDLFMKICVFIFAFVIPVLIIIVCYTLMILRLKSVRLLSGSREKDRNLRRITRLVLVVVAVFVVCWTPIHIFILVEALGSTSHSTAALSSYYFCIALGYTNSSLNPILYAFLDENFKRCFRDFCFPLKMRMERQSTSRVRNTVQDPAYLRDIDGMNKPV

| SMILES | EC50 | Relative Activity % | EC50 [1] |
| --- | --- | --- | --- |
| CCc1ccc(C[C@@H](NC(=O)[C@H](N)Cc2ccccc2)C(=O)N[C@H](CC(C)C)C(=O)N[C@H](CCCCN)C(=O)N2CCC(N)(C(=O)N[C@@H](CCCCN)C(=O)O)CC2)cc1 [Compound 132, D-Phe-D-Phe(4-Et)-D-Leu-D-Lys-4-aminopiperidine-4-carboxamide-Lys-OH] | 130 pM | 465.6% | – |
| CCOc1ccc(C[C@@H](NC(=O)[C@H](N)Cc2ccccc2)C(=O)N[C@H](CC(C)C)C(=O)N[C@H](CCCCN)C(=O)N2CCC(N)(C(=O)N[C@@H](CCCCN)C(=O)N[C@@H](CCCCN)C(=O)N[C@@H](CCCCN)C(=O)N[C@@H](CCCCN)C(=O)O)CC2)cc1 [Compound 10, D-Phe-D-Tyr(Et)-D-Leu-D-Lys-4-aminopiperidine-4-carboxamide-Lys-Lys-Lys-Lys-OH] (H-[Api]([dK-dL-X12])KKKK-OH; N-terminus assumed) | 46.3 pM | 1311.4% | – |
| CC(C)C[C@@H](NC(=O)[C@@H](Cc1ccc(OC(C)C)cc1)NC(=O)[C@H](N)Cc1ccccc1)C(=O)N[C@H](CCCCN)C(=O)N1CCC(N)(C(=O)N[C@H](CCCCN)C(N)=O)CC1 [Compound 101, D-Phe-D-Tyr(Ipr)-D-Leu-D-Lys-4-aminopiperidine-4-carboxamide-D-Lys-NH2] (H-[dF][dY](iPr)[dL][dK]-X1; N-terminus assumed) | 72.8 pM | 834.1% | – |
| CC(C)C[C@@H](NC(=O)[C@@H](Cc1ccccc1)NC(=O)[C@H](N)Cc1ccccc1)C(=O)N[C@H](CCCCN)C(=O)N1CCC(N)(C(=O)O)CC1 [Difelikefalin, D-Phe-D-Phe-D-Leu-D-Lys-4-caminopiperidine-4-arboxylicacid-OH, reference compound] | – | – | 607 pM |
| Cc1ccc(C[C@@H](NC(=O)[C@H](N)Cc2ccccc2)C(=O)N[C@H](CC(C)C)C(=O)N[C@H](CCCCN)C(=O)N2CCC(N)(C(=O)N[C@@H](CCCCN)C(=O)O)CC2)cc1 [Compound 128, D-Phe-D-Phe(4-Me)-D-Leu-D-Lys-4-aminopiperidine-4-carboxamide-Lys-OH] | 160 pM | 380.2% | – |
| CC(C)C[C@@H](NC(=O)[C@@H](Cc1ccc(Br)cc1)NC(=O)[C@H](N)Cc1ccccc1)C(=O)N[C@H](CCCCN)C(=O)N1CCC(N)(C(=O)N[C@H](CCCCN)C(N)=O)CC1 [Compound 119, D-Phe-D-Phe(4-Br)-D-Leu-D-Lys-4-aminopiperidine-4-carboxamide-D-Lys-NH2] | 61.5 pM | 987.3% | – |
| CCOc1ccc(C[C@@H](NC(=O)[C@H](N)Cc2ccccc2)C(=O)N[C@H](CC2CC2)C(=O)N[C@H](CCCCN)C(=O)N2CCC(N)(C(=O)O)CC2)cc1 [Compound 68, D-Phe-D-Tyr(Et)-D-cyclopropylalanine-D-Lys-4-aminopiperidine-4-carboxamide-OH] (H-[dF][dY](Et)[dAla(cPr)][dK]-{Piperidin1yl(4-NH2,4-COOH)}; N-terminus assumed) | – | 483.4% | 126 pM |
| CC(C)C[C@@H](NC(=O)[C@@H](Cc1ccc(Br)cc1)NC(=O)[C@H](N)Cc1ccccc1)C(=O)N[C@H](CCCCN)C(=O)N1CCC(N)(C(=O)O)CC1 [Compound 116, D-Phe-D-Phe(4-Br)-D-Leu-D-Lys-4-aminopiperidine-4-carboxamide-OH] | 136 pM | 448.1% | – |
| COc1ccc(C[C@@H](NC(=O)[C@H](N)Cc2ccccc2)C(=O)N[C@H](CC(C)C)C(=O)N[C@H](CCCCN)C(=O)N2CCC(N)(C(=O)N[C@@H](CCCCN)C(N)=O)CC2)cc1 [Compound 87, D-Phe-D-Tyr(Me)-D-Leu-D-Lys-4-aminopiperidine-4-carboxamide-Lys-NH2] (H-[dF][dY](Me)[dL][dK]-X6; N-terminus assumed) | 42.2 pM | 1438.9% | – |
| CCOc1ccc(C[C@@H](NC(=O)[C@H](N)Cc2ccccc2)C(=O)N[C@H](CC(C)C)C(=O)N[C@H](CCCCN)C(=O)N2CCC(N)(C(=O)NCC(=O)N[C@H](CCCCN)C(N)=O)CC2)cc1 [Compound 49, D-Phe-D-Tyr(Et)-D-Leu-D-Lys-4-aminopiperidine-4-carboxamide-Gly-D-Lys-NH2] (H-[dF][dY](Et)[dL][dK]-X5; N-terminus assumed) | 44.5 pM | 1364.5% | – |
| CC(C)C[C@@H](NC(=O)[C@@H](Cc1ccc(I)cc1)NC(=O)[C@H](N)Cc1ccccc1)C(=O)N[C@H](CCCCN)C(=O)N1CCC(N)(C(=O)N[C@@H](CCCCN)C(N)=O)CC1 [Compound 123, D-Phe-D-Phe(4-I)-D-Leu-D-Lys-4-aminopiperidine-4-carboxamide-Lys-NH2] | 53.5 pM | 1135.0% | – |
| CC(C)C[C@@H](NC(=O)[C@@H](Cc1ccc(OCC(F)(F)F)cc1)NC(=O)[C@H](N)Cc1ccccc1)C(=O)N[C@H](CCCCN)C(=O)N1CCC(N)(C(N)=O)CC1 [Compound 91, D-Phe-D-Tyr(CH2CF3)-D-Leu-D-Lys-4-aminopiperidine-4-carboxamide-NH2] (H-[dF][dY](Trifluoroethyl)[dL][dK]-{Piperidinyl(4-NH2,4-CONH2)}; N-terminus assumed) | 110 pM | 550.0% | – |
| CCOc1ccc(C[C@@H](NC(=O)[C@H](N)Cc2ccccc2)C(=O)N[C@H](CC(C)C)C(=O)N[C@H](CCCCN)C(=O)N2CCC(N)(C(=O)NCC(=O)NCC(=O)NCC(=O)NCC(=O)NCC(=O)N[C@H](CCCCN)C(N)=O)CC2)cc1 [Compound 65, D-Phe-D-Tyr(Et)-D-Leu-D-Lys-4-aminopiperidine-4-carboxamide-Gly-Gly-Gly-Gly-Gly-D-Lys-NH2] (H-[Api]([dK-dL-X12])GGGGG[dK]-NH2; N-terminus assumed) | 88.4 pM | 686.9% | – |
| CCOc1ccc(C[C@@H](NC(=O)[C@H](N)Cc2ccccc2)C(=O)N[C@H](CC(C)C)C(=O)N[C@H](CCCCN)C(=O)N2CCC(N)(C(=O)N[C@@H](CCCCN)C(=O)N[C@@H](CCCCN)C(=O)N[C@@H](CCCCN)C(=O)N[C@@H](CCCCN)C(=O)N[C@@H](CCCCN)C(N)=O)CC2)cc1 [Compound 11, D-Phe-D-Tyr(Et)-D-Leu-D-Lys-4-aminopiperidine-4-carboxamide-Lys-Lys-Lys-Lys-Lys-NH2] (H-[Api]([dK-dL-X12])KKKKK-NH2; N-terminus assumed) | 53.4 pM | 1137.1% | – |
| CC(C)C[C@@H](NC(=O)[C@@H](Cc1ccc(OCC(F)(F)F)cc1)NC(=O)[C@H](N)Cc1ccccc1)C(=O)N[C@H](CCCCN)C(=O)N1CCC(N)(C(=O)N[C@H](CCCCN)C(N)=O)CC1 [Compound 95, D-Phe-D-Tyr(CH2CF3)-D-Leu-D-Lys-4-aminopiperidine-4-carboxamide-D-Lys-NH2] (H-[dF][dY](Trifluoroethyl)[dL][dK]-X1; N-terminus assumed) | 50.5 pM | 1202.4% | – |
| CCOc1ccc(C[C@@H](NC(=O)[C@H](N)Cc2ccccc2)C(=O)N[C@H](CC2CC2)C(=O)N[C@H](CCCCN)C(=O)N2CCC(N)(C(=O)N[C@H](CCCCN)C(N)=O)CC2)cc1 [Compound 71, D-Phe-D-Tyr(Et)-D-cyclopropylalanine-D-Lys-4-aminopiperidine-4-carboxamide-D-Lys-NH2] (H-[dF][dY](Et)[dAla(cPr)][dK]-X1; N-terminus assumed) | 41 pM | 1481.0% | – |
| CC(C)C[C@@H](NC(=O)[C@@H](Cc1ccc(OCC(F)(F)F)cc1)NC(=O)[C@H](N)Cc1ccccc1)C(=O)N[C@H](CCCCN)C(=O)N1CCC(N)(C(=O)N[C@H](CCCCN)C(=O)O)CC1 [Compound 96, D-Phe-D-Tyr(CH2CF3)-D-Leu-D-Lys-4-aminopiperidine-4-carboxamide-D-Lys-OH] (H-[dF][dY](Trifluoroethyl)[dL][dK]-X10; N-terminus assumed) | 49.4 pM | 1229.1% | – |
| COc1ccc(C[C@@H](NC(=O)[C@H](N)Cc2ccccc2)C(=O)N[C@H](CC(C)C)C(=O)N[C@H](CCCCN)C(=O)N2CCC(N)(C(=O)O)CC2)cc1 [Compound 86, D-Phe-D-Tyr(Me)-D-Leu-D-Lys-4-aminopiperidine-4-carboxamide-OH] (H-[dF][dY](Me)[dL][dK]-{Piperidin1yl(4-NH2,4-COOH)}; N-terminus assumed) | 121 pM | 501.0% | – |
| CC(C)C[C@@H](NC(=O)[C@@H](Cc1ccc(I)cc1)NC(=O)[C@H](N)Cc1ccccc1)C(=O)N[C@H](CCCCN)C(=O)N1CCC(N)(C(N)=O)CC1 [Compound 121, D-Phe-D-Phe(4-I)-D-Leu-D-Lys-4-aminopiperidine-4-carboxamide-NH2] | 122 pM | 496.1% | – |
| CCOc1ccc(C[C@@H](NC(=O)[C@H](N)Cc2ccccc2)C(=O)N[C@H](CC(C)C)C(=O)N[C@H](CCCCN)C(=O)N2CCC(N)(C(=O)N[C@H](CCCCN)C(=O)N[C@H](CCCCN)C(=O)N[C@H](CCCCN)C(=O)N[C@H](CCCCN)C(=O)N[C@H](CCCCN)C(N)=O)CC2)cc1 [Compound 23, D-Phe-D-Tyr(Et)-D-Leu-D-Lys-4-aminopiperidine-4-carboxamide-D-Lys-D-Lys-D-Lys-D-Lys -D-Lys-NH2] (H-[Api]([dK-dL-X12])[dK][dK][dK][dK][dK]-NH2; N-terminus assumed) | 55.4 pM | 1096.0% | – |
| CC(C)C[C@@H](NC(=O)[C@@H](Cc1ccc(OCC(F)(F)F)cc1)NC(=O)[C@H](N)Cc1ccccc1)C(=O)N[C@H](CCCCN)C(=O)N1CCC(N)(C(=O)O)CC1 [Compound 92, D-Phe-D-Tyr(CH2CF3)-D-Leu-D-Lys-4-aminopiperidine-4-carboxamide-OH] (H-[dF][dY](Trifluoroethyl)[dL][dK]-{Piperidin1yl(4-NH2,4-COOH)}; N-terminus assumed) | 109 pM | 558.6% | – |
